These results are taken from patent US5496841A, “Anti-neoplastic, anti-viral and ribonucleotide reductase activity affecting pharmaceutical compositions and method of treatment” (University of Florida Research Foundation, Inc., priority 1995, dated 1996).

Read-outs that look alike come from different tables or passages of the source.

Data set [1] relates to herpes simplex I, KOS strain. Put plainly: Inhibition of herpes simplex virus replication in CV-1 cells (plaque assay). Format: cell-based. As to conditions: for anti-herpetic activity (in words): herpes simplex I; for % Control, Herpes replication: Compound II 100 μM.
Data set [2] relates to Murine L1210 leukemia cells. As to the kind of experiment: L1210 leukemia cell growth inhibition. The data set is classed as cell-based. Conditions: for IC50: L1210, 48 hr, read-out: Antileukemic Activity (IC50, 48 hr); for anti-leukemic activity (in words): L1210; for % Control, L1210 growth: Compound II 10 μM.
Data set [3] concerns vesicular stomatitis virus. Put plainly: microbe, parasite or virus in culture. The data set is classed as cell-based.
The next data set concerns Plasmodium falciparum. Put plainly: In vitro growth of Plasmodium falciparum (candle jar technique). Format: cell-based. The method, then: The anti-malarial activity of the compounds listed in Table IV were determined using the method of Scheibel et al, Mol. Pharmacol., 20, pp. 218-223 (1981).
In this study, Plasmodium falciparum were grown in petri dishes using the conventional candle jar technique (Jensen, J. B., and W. Trager. Plasmodium falciparum in culture; use of outdated erythrocytes and description of the candle jar method. J. Parasitol. Vol. 63, pp. 883-886 (1977)). Parasites were grown for 24 hours in 1.5 ml petri dishes in a candle jar before exposure to the chelators of interest. The Plasmodium falciparum were next exposed to various concentrations of the ligands, and ED50 values determined after two and three days of exposure.

The conditions of data set [4]: prior art statement; cited from earlier work.
Data set [5] is described as follows: Partition between n-octanol and phosphate buffered saline. The data set is classed as physicochemical. As to conditions: PBS pH 7.40 / n-octanol; for logD at 12 h: pH 7.4, 27° C., read-out: Conc. n-Octanol / Conc. PBS (partition coefficient) (converted). The method, then:
The partition equilibrium values for octanol and phosphate buffered saline were determined for certain of the test compounds. The compounds were added in nitrogen saturated methanol at the same concentration to three acid washed test tubes and the alcohol evaporated leaving a thin film of compounds coating the interior of the tube. Next, 5 ml each of degassed phosphate buffered saline (pH 7.4) and n-octanol were added. The tubes were sealed with Teflon caps under argon and rotated at 6 rpm at 27° C. for 12 hours. […] Absorbance values were compared to Beer's Lambert's plots generated for each compound.

The subject of data set [6] is herpes virus (same herpes strain). As to conditions: vero monkey kidney cell line, DeClercq, read-out: IC50 anti-herpetic; cited from earlier work.
Data set [7] can be described thus: Iron formation (binding) constant. Conditions: estimated iron binding constant. Format: physicochemical. An excerpt:
When the compounds were ranked according to their estimated iron binding constants (Table I), the order generally paralleled both the anti-leukemicand anti-herpetic activities of the compounds. […] Furthermore, the effects of the ligands could be prevented by addition of ferric chloride, supporting the idea that iron chelation is the source of activity.

The next data set deals with CV-1 monkey kidney cells. Put plainly: Toxicity to resting monkey kidney cell monolayers. Format: cell-based. Conditions: 100 μM, 24 hours.
The next data set has as its system L1210 cells. As to conditions: Porter et al, read-out: 50% growth-inhibitory dose; cited from earlier work.
[8] abbreviates: CV-1 cells, read-out: Antiviral Activity Herpes simplex I (IC50).
Where [9] appears, read: 48 h, exposure for 2 days, read-out: Concentration required to reduce in vitro growth of P. falciparum 50% (ED50), Day 2.
The mark [10] stands for this setting: 72 h, exposure for 3 days, read-out: Concentration required to reduce in vitro growth of P. falciparum 50% (ED50), Day 3.
Where [11] appears, read: CV-1, read-out: Antiviral Activity Herpes simplex I (IC50).
The mark [12] stands for this setting: Vesicular stomatitis virus, CV-1, read-out: Antiviral Activity Vesicular stomatitis (IC50).

As for `C[C@@H](O)[C@H](N)C(=O)N(CCCCNC(=O)c1cccc(O)c1O)CCCNC(=O)c1cccc(O)c1O` [N^1,N^8-bis(2,3-dihydroxybenzoyl)-N^4-threonyl-spermidine], the IC50 in data set [1] (setting [8]) is 55 µM; in data set [2], 14 µM; in [3] (estimated by methyl cellulose disk overlay assay, read-out: Antiviral Activity Vesicular stomatitis (IC50)), 1000 µM.

As for `C[C@H]1OC(c2ccccc2O)=N[C@@H]1C(=O)N(CCCCNC(=O)c1cccc(O)c1O)CCCNC(=O)c1cccc(O)c1O` (relative stereo) [Parabactin, N-[3-(2,3-dihydroxybenzamido)propyl]-N-[4-(2,3-dihydroxybenzamino)-butyryl]-2-(2-hydroxyphenyl)trans-5-methyl-oxazoline-4-carboxamide], the IC50 in data set [1] (setting [8]) worked out at 0.4 µM; with Plasmodium falciparum (setting [9]) it was 2.6 µM; with Plasmodium falciparum (setting [10]), 2.3 µM; in data set [2] (Mus musculus) it was 2 µM. For the same compound, the “iron formation constant of 1:1 metal complex” value in [4] is on record as ~10^48 moles/l. For the same compound, the “times more active as an antineoplastic than DHBA” value in data set [2] (ratio vs DHBA) is 10^3. In addition, the “Gt ° (G° transfer)” value in data set [5] is -2.06 K cal M-I. Moreover, the logD at 12 h in data set [5] is 1.51.

In the case of `Nc1nc2c(ncn2COCCO)c(=O)[nH]1` [acyclovir], in data set [6], the IC50 was 40 µM.

For `NCCCCN(CCCN)Cc1ccccc1`, the IC50 turned out to be 1000 µM in data set [1] (setting [11]), 4000 µM in data set [2] (Mus musculus) and 1000 µM in data set [3] (setting [12]). Besides, in [1], the “anti-herpetic activity (in words)” value is “virtually inactive”. Besides, the “Formation Constant” value in data set [7] is given as 0 moles/1. The “anti-leukemic activity (in words)” value in data set [2] is “virtually inactive”.

Take `C[C@H]1OC(c2cccc(O)c2O)=N[C@@H]1C(=O)NCCCN(CCCNC(=O)c1cccc(O)c1O)C(=O)[C@H]1N=C(c2cccc(O)c2O)O[C@@H]1C` (relative stereo) [Vibrobactin, N-[3-(2,3-(dihydrozybenzamido)propyl]-1,3-bis(2,3-dihydroxyphenyl)-trans-5-methyl-2-oxazoline-4-carbonamido]propane]: the IC50 with Plasmodium falciparum (setting [9]) turned out to be 4.5 µM; in the data set on Plasmodium falciparum (setting [10]), 1.8 µM; in data set [2] (Mus musculus), 2 µM.

Regarding `O=C(O)c1cccc(O)c1O` [DHBA, 2,3-dihydroxybenzoic acid], the IC50 in [1] (setting [11]) came to 1000 µM; in data set [2] (Mus musculus), 2800 µM; in data set [3] (setting [12]), 1000 µM. Besides, the “anti-herpetic activity (in words)” value in [1] was “minimal activity”. Moreover, the “anti-leukemic activity (in words)” value in data set [2] is “minimal activity”. For the same compound, in data set [5], the “Gt ° (G° transfer)” value was “+1.57 K cal M-I”. Besides, in [5], the logD at 12 h was -1.15.

Turning to `O=C(NCCCCNCCCNC(=O)c1cccc(O)c1O)c1cccc(O)c1O` [Compound II, N^1,N^8-bis(2,3-dihydroxybenzoyl)-spermidine], the “growth of resting cell monolayers after treatment and replacement in drug-free media” value in the data set with CV-1 monkey kidney cells is “identical to that of untreated cells”. In addition, the IC50 in [1] (setting [8]) is 32 µM; in the data set with Plasmodium falciparum (setting [9]) it was 4.5 µM; with Plasmodium falciparum (setting [10]) it was 3.7 µM; in the data set with L1210 cells, 10 µM; in data set [2] (Mus musculus) it was 7 µM; in data set [3] (setting [12]) it was 1000 µM. Further, the “% Control, Herpes replication” value is recorded as 0 % Control in data set [1] (FeCl3 0 μM), 20 % Control in [1] (FeCl3 9 μM), 53 % Control in [1] (FeCl3 19 μM) and 138 % Control in [1] (FeCl3 38 μM). Also, the “anti-herpetic activity on inclusion of exogenous iron in the incubation media” value in data set [1] (ferric chloride added, herpes replication assay) is on record as “fully attenuated”. For the same compound, the “% Control, L1210 growth” value in data set [2] (FeCl3 0 μM) worked out at 23 % Control; in [2] (FeCl3 4 μM) it was 64 % Control; in data set [2] (FeCl3 8 μM), 96 % Control; in [2] (FeCl3 12 μM) it was 104 % Control. For the same compound, the “anti-leukemic activity on inclusion of exogenous iron in the incubation media” value in data set [2] (ferric chloride added) is “fully attenuated”. Further, in [5], the “Gt ° (G° transfer)” value is -0.04 K cal M-I. Moreover, the logD at 12 h in [5] was -0.0132.

Take `Nc1nc(=O)n([C@@H]2O[C@H](CO)[C@@H](O)[C@@H]2F)cc1I` [FIAC, 2-fluoro-5-iodo-I-B-D-arabinofuranosylcytosine]: the IC50 in [6] is 0.6 µM.

As to `O=C(NCCCCN(CCCNC(=O)c1cccc(O)c1O)C(=O)CCCNC(=O)c1cccc(O)c1O)c1cccc(O)c1O` [GABA, N^1,N^8-bis(2,3-dihydroxybenzoyl)-N^4-(4-[2,3-dihydrozybenzamido]-butyryl) spermidine], the IC50 in data set [1] (setting [8]) turned out to be 18 µM; in the data set on Plasmodium falciparum (setting [9]), 5.1 µM; with Plasmodium falciparum (setting [10]), 4.3 µM; in data set [2] (Mus musculus) it was 2 µM; in data set [3] (setting [12]), 1000 µM.
